Measurements from ChEMBL document CHEMBL1122963, “[3H]Batrachotoxinin A 20 alpha-benzoate binding to voltage-sensitive sodium channels: a rapid and quantitative assay for local anesthetic activity in a variety of drugs” (J Med Chem, 1985).

Columns and labels:
[1] = target: T1, Sodium channel alpha subunits; brain (Types I, II, III) (Homo sapiens, UniProt P35498+Q99250+Q9NY46); experiment: Inhibition of binding of Batrachotoxinin [3H]BTX-B to high affinity sites on voltage dependent sodium channels in a vesicular preparation from guinea pig cerebral cortex; type: tissue-based, Cavia porcellus
[2] = target: T1, Sodium channel alpha subunits; brain (Types I, II, III); conditions: Cavia porcellus; Cerebral cortex; at 10 µM
[3] = target: T1, Sodium channel alpha subunits; brain (Types I, II, III); conditions: Cavia porcellus; Cerebral cortex; at 100 µM
[4] = target: T1, Sodium channel alpha subunits; brain (Types I, II, III); conditions: Cavia porcellus; Cerebral cortex; at 10 µM; remark: listed apart in the source

T1 sequence (Q99250 whole entry, looked up, other chains not shown): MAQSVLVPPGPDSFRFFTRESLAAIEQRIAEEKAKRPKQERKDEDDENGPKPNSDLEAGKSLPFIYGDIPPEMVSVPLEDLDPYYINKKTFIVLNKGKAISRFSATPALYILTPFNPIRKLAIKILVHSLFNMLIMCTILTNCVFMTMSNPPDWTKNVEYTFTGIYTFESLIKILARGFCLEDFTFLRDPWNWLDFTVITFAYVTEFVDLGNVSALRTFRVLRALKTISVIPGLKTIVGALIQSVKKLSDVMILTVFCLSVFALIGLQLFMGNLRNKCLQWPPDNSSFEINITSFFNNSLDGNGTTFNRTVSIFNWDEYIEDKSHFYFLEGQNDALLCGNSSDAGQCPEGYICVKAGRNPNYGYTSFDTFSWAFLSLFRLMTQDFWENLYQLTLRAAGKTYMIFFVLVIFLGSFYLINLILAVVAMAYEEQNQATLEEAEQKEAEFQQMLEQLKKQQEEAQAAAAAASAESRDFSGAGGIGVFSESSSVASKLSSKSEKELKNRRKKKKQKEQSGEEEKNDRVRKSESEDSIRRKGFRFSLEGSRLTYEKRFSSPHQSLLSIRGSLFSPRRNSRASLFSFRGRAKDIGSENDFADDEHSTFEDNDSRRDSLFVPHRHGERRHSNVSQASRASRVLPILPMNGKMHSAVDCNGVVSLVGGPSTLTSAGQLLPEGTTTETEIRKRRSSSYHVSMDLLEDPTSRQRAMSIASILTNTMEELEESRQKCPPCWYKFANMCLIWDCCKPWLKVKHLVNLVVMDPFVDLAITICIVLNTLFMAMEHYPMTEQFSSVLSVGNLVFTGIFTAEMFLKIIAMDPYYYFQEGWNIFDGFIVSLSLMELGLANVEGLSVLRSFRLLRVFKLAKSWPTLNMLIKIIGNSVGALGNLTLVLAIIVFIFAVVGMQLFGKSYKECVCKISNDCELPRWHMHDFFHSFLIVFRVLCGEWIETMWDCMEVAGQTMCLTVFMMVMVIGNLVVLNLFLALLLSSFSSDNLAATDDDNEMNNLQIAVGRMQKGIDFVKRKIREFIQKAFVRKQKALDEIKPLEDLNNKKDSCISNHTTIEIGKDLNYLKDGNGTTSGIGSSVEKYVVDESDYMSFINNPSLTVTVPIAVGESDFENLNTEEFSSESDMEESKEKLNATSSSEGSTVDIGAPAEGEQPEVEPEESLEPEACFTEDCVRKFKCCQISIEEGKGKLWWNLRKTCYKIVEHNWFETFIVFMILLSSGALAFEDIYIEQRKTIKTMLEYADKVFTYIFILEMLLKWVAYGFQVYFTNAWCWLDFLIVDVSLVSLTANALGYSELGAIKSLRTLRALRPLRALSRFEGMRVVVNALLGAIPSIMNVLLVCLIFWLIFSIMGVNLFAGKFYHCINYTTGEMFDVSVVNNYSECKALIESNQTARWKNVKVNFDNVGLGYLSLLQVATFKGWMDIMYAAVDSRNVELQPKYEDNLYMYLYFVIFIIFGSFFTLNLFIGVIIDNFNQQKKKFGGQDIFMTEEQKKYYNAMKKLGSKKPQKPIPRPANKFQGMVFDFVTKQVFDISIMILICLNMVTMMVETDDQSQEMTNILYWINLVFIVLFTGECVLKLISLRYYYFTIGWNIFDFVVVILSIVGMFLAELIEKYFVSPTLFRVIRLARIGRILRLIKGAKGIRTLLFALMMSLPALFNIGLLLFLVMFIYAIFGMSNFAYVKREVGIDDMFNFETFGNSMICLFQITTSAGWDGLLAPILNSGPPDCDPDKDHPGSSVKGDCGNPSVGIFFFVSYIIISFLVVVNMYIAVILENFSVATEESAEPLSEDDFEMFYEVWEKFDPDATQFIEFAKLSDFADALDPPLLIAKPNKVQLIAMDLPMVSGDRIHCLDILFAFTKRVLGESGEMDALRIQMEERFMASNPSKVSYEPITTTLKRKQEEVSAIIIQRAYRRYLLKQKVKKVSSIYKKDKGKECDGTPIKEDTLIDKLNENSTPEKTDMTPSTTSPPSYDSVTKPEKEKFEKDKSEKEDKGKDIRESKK
T1 sequence (Q9NY46 whole entry, looked up, other chains not shown): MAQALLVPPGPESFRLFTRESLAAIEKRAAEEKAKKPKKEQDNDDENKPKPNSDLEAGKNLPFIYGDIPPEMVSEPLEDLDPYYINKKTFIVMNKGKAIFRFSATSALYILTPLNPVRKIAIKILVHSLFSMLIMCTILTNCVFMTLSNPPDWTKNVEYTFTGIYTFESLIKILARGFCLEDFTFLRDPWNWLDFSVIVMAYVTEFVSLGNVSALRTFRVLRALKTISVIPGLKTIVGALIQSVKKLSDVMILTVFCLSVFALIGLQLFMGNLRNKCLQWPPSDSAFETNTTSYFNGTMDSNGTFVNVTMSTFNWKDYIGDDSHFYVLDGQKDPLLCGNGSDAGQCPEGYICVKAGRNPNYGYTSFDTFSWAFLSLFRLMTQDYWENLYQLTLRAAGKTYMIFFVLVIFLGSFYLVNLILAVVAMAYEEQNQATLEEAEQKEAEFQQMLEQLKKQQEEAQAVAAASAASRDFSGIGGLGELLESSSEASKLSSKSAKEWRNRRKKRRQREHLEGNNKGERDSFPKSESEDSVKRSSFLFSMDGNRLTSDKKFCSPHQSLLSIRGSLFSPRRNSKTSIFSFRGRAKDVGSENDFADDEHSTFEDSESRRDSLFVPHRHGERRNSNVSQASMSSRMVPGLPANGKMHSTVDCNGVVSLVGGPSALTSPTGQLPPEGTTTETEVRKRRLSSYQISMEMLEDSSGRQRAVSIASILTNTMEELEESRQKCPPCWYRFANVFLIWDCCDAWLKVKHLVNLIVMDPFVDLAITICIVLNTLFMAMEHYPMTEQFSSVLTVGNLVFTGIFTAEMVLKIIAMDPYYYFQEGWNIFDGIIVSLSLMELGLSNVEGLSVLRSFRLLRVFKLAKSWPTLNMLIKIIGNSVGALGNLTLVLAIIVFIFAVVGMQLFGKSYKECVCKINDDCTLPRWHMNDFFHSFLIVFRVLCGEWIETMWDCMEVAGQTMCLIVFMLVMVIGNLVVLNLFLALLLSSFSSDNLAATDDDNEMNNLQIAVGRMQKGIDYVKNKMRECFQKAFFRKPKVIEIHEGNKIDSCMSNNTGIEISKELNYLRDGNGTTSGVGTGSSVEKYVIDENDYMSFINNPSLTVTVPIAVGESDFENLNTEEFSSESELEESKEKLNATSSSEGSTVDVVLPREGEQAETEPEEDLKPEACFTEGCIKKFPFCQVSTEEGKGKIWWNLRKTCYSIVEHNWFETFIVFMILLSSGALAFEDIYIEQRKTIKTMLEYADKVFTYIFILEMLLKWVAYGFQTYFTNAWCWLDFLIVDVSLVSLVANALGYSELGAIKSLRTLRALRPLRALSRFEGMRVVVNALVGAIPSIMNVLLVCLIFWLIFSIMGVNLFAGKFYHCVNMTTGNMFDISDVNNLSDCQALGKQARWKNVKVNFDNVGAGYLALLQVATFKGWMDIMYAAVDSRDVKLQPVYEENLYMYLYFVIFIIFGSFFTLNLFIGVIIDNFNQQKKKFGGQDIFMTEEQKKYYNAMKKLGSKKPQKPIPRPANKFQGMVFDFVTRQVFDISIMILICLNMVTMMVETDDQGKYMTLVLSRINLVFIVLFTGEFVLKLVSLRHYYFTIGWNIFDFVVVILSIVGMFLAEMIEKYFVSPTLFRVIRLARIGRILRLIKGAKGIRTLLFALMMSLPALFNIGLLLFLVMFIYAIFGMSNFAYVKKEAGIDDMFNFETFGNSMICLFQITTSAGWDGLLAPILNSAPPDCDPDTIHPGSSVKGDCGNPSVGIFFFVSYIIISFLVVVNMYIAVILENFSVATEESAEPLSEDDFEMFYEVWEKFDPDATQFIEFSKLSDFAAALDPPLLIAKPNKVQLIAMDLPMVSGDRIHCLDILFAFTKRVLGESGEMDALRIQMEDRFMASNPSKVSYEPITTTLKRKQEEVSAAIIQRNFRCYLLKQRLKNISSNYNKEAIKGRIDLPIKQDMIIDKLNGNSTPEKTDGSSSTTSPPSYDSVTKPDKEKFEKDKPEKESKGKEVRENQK

Compound	IC50 [1] [µM]	inhibition [2] [%]	inhibition [3] [%]	inhibition [4] [%]
CCN(CC)CCNC(=O)c1ccc(N=[N+]=[N-])cc1	65	13.4	56.1	
N=C1CCCCCCCCCCCN1C1CCCC1c1ccccc1 (centres undefined)	0.8		100	
CC1CCCC[N+]1(C)CCCOC(=O)c1ccccc1.[I-] (centres undefined)	360	9.6	31.4	
CC(C)NCC(O)c1ccc(NS(C)(=O)=O)cc1 (centres undefined)			4.6	
CCCC(C)C1(CC)C(=O)NC(=O)NC1=O (centres undefined)		1.2	7.6	
CCCCOC(=O)c1ccc(N)cc1		7	36.8	
CCN(CC)CC(=O)Nc1c(C)cccc1C		9.8	31.4	
CCN(CC)CCCCCCCCOC(=O)c1cc(C)c(C)c(C)c1		3.4	21.6	
CCN(CC)CCNC(=O)c1ccc(N)cc1		7.8	22.5	
CCOC(=O)c1cnc2c(cnn2CC)c1NN=C(C)C		8.3	20.1	
CC[C@@H](CO)NC(=O)[C@@H]1C=C2c3cccc4c3c(cn4C)C[C@H]2N(C)C1			17.8	
CN(C)CCCN1c2ccccc2[S+]([O-])c2ccc(Cl)cc21 (centres undefined)		18	69.1	
CN/C(=N\CCSCc1nc[nH]c1C)NC#N		0	4.1	
CN1C(=O)CN=C(c2ccccc2)c2cc(Cl)ccc21		15.2	45.4	
CN1CC[C@]23c4c5ccc(O)c4O[C@H]2[C@@H](O)C=C[C@H]3[C@H]1C5			5.3	
CN1CCc2cc3c(cc2[C@H]1[C@@H]1OC(=O)c2c1ccc1c2OCO1)OCO3			1.8	
CNC1=Nc2ccc(Cl)cc2C(c2ccccc2)=[N+]([O-])C1		4.4	35	
COc1ccc(C2C(=O)c3ccccc3C2=O)cc1		1.3	0	
COc1ccc(C2CNC(=O)C2)cc1OC1CCCC1 (centres undefined)		3.1	8.5	
COc1ccc(Cc2nccc3cc(OC)c(OC)cc23)cc1OC		11	56	
COc1ccc2c(c1)c(CC(=O)O)c(C)n2C(=O)c1ccc(Cl)cc1		3.3	11.2	
C[C@@H]1O[C@H](n2cnc3c(N)ncnc32)C[C@H]1O			3.5	

Compound	IC50 [1] [µM]	inhibition [2] [%]	inhibition [3] [%]	inhibition [4] [%]
C[C@]12CC[C@@H]3c4ccc(O)cc4CC[C@H]3[C@@H]1CC[C@@H]2O		17.8	53.3	
Cc1cccc(C)c1NC(=O)C1CCCCN1C (centres undefined)		5.3	29.3	
Cn1c(=O)c2nc(-c3ccc(S(=O)(=O)O)cc3)[nH]c2n(C)c1=O		1.6	2.9	
Nc1ccncc1		1.2	3.8	
Nc1nc(Cl)nc2c1ncn2[C@@H]1O[C@H](CO)[C@@H](O)[C@H]1O		1.3	3.5	
O=c1n(CCCN2CCN(c3cccc(Cl)c3)CC2)nc2ccccn12		26.2	79.6	
CCCNC(C)C(=O)Nc1c(C)csc1C(=O)OC (centres undefined) [ARTICAINE]		17.1	62.2	
CCOC(=O)c1ccc(N)cc1 [BENZOCAINE]	910	5.1	0	
CC(C)CNCCOC(=O)c1ccc(N)cc1 [BUTETHAMINE]	55	12.3	63.2	
C(=C\c1ccccc1)/CN1CCN(C(c2ccccc2)c2ccccc2)CC1 [CINNARIZINE]				94.6
COC(=O)[C@H]1[C@@H](OC(=O)c2ccccc2)C[C@@H]2CC[C@H]1N2C [COCAINE]	49	19.5	63.2	
C=C[C@@]1(C)CC(=O)[C@]2(O)[C@@]3(C)[C@@H](O)CCC(C)(C)[C@@H]3[C@H](O)[C@H](OC(C)=O)[C@@]2(C)O1 [COLFORSIN]	60		62.8	
c1ccc2c(c1)OCC(CN1CCCCC1)O2 (centres undefined) [PIPEROXAN]	61		58.8	
CCCCOc1ccc(OCCCN2CCOCC2)cc1 [PRAMOXINE]	21.2	29.7	86.3	
CCCNC(C)C(=O)Nc1ccccc1C (centres undefined) [PRILOCAINE]	54	14.2	58.5	
COc1cc2c(cc1OC)C1CC(=O)C(CC(C)C)CN1CC2 (centres undefined) [TETRABENAZINE]	85	7	55	
CSc1ccc2c(c1)N(CCC1CCCCN1C)c1ccccc1S2 (centres undefined) [THIORIDAZINE]	6.5	63.5		
CN1CCN(CCCN2c3ccccc3Sc3ccc(C(F)(F)F)cc32)CC1 [TRIFLUOPERAZINE]	5	79.8		
COC(=O)[C@@H]1[C@H]2C[C@H]3c4[nH]c5ccccc5c4CCN3C[C@@H]2CC[C@@H]1O [YOHIMBINE]	33	25.6		
Cc1ccc(OCC(O)C(C)NC(C)C)c2c1CCC2 (centres undefined) [ZENIDOLOL]	< 10	64.2		
COc1ccc(CN(CCN(C)C)c2nccs2)cc1 [ZOLAMINE]	19.2	35.9	82.4	
